Assay results reported in patent publication US20230242584A1, “NOVEL POLYPEPTIDES WITH SKIN WHITENING ACTIVITY AND USE THEREOF” (Metapore Co., Ltd., priority 2019, published 2023).

Experiments:
[1] = tested on: B16F10 cells; assay: Melanin assay (melanin inhibitory effect); assay type: cell-based; details: 10 μM polypeptide, α-MSH 0.5 μM, 24 hours, absorbance 490 nm, control 10 μM arbutin, FIG. 1
Experimental: B16F10 cells (6×10^4 cells/well) were aliquoted into 6-well plates and incubated. After 12 hours, the medium was changed to a medium containing α-MSH (Sigma, 0.5 μM) and the test substance (each of the polypeptides or control substances of the present invention). Each 10 μM of polypeptides were treated. In addition, 10 μM of arbutin, which is widely known as a skin whitening ingredient, was used as a control. After incubation for 24 hours, cells were harvested. The number of cells was confirmed using a C-chip (disposable hemacytometer, […]). Cells (1×10^5 cells) were lysed with 1N NaOH at 70° C. for 1 hour. After centrifugation at 4,000 rpm for 5 minutes, the supernatant was harvested and the melanin content was measured. The absorbance of melanin was measured at 490 nm using a microplate reader (Synergy 2, BioTek).

[2] = molecular target: T1, tyrosinase (Mus musculus, UniProt P11344); assay: Tyrosinase activity assay (tyrosinase inhibitory effect); assay type: cell-based; details: 10 μM polypeptide, α-MSH 0.5 μM, 24 hours, B16F10 cell lysate with 5 mM L-DOPA; control 10 μM arbutin; FIG. 2
T1 construct: Cells were lysed with PBS buffer containing 1% Triton X-100 (Sigma); endogenous in cells; host or cells: B16F10 cells, stimulated with alpha-MSH
T1 sequence (P11344 19-533): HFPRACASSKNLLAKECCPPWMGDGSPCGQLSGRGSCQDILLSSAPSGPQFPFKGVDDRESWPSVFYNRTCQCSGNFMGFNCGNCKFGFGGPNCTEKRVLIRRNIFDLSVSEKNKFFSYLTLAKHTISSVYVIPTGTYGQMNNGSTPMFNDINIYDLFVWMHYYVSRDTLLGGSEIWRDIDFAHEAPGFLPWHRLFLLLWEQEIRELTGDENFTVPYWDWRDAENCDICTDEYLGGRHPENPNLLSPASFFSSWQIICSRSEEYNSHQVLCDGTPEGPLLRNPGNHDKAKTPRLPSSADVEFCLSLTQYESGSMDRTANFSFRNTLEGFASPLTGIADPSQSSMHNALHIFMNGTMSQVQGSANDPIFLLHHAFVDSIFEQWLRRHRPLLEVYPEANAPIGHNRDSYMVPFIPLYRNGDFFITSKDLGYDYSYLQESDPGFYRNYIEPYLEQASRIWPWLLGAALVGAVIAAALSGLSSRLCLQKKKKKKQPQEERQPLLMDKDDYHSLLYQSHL
Experimental: B16F10 cells (6×10^4 cells/well) were aliquoted into 6-well plates and incubated. After 12 hours, the medium was changed to a medium containing a-MSH (Sigma, 0.5 μM) and the test substance (each of the polypeptides or control substances of the present invention). Each 10 μM of polypeptides were treated. In addition, 10 μM of arbutin, which is widely known as a skin whitening ingredient, was used as a control. After incubation for 24 hours, cells were harvested. Cells were lysed with PBS buffer containing 1% Triton X-100 (Sigma). After centrifugation at 12,000 rpm for 20 minutes, the supernatant was harvested and the protein concentration was measured by BCA assay kit (Thermo Fisher Scientific). To measure tyrosinase activity, 50 μg of protein (protein contained in the supernatant) was incubated at 37° C. with 5 mM L-DOPA. Absorbance was measured at 490 nm using a microplate reader (Synergy 2, BioTek). Absorbance was measured every 10 minutes for 1 hour.

| Sequence | inhibitory effect of melanin production [1] | inhibitory effect of tyrosinase [2] |
| --- | --- | --- |
| ADQIIEYLKQQVSLL (amino acid sequence of peptide for skin whitening (AIMP1 18aa - 32aa)) [Peptide S2] | better inhibitory effect of melanin production than arbutin | same level of the inhibitory effect of tyrosinase as arbutin |
| LKEKAILQATLREEK (peptide fragment from AIMP1(AIMP1 32aa - 46aa)) [Peptide S10] | completely absent | insignificant |
